The subject of assay [1] is ventral midbrain organoids. Put plainly: SAG dose curve for floor plate induction in ventral midbrain organoids (qPCR FOXA2). Type of assay: cell-based, human. The settings on record: day 4-11, with dual SMAD inhibition and Wnt activation; by day 20. The protocol: FIG. 2A-D: qPCR analysis of markers of ventral midbrain of the dose curving experiment to generate ventral midbrain organoids. Two separate dose curving experiments were performed, where first the correct dosage of sonic hedgehog activation was tested (FIG. 2A, floor plate marker FOXA2). Secondly, we performed qPCR to test for appropriate concentrations of posteriorization using Wnt activation. Dopaminergic neurons are born in the very ventral floor plate of the posterior midbrain, next to the midbrain-hindbrain boundary, thus the Forebrain and Midbrain marker OTX2 should still be expressed, whereas the hindbrain is OTX2 negative. We found a concentration of 0.8-1 μM sufficient to introduce midbrain (FIG. 2B), while the floor plate marker FOXA2 was still expressed (FIG. 2C). qPCR for the dopaminergic marker TH (Tyrosine hydroxylase, the rate-limiting enzyme for dopamine synthesis) confirmed this concentration of Wnt activation, with a sharp drop of TH expression starting at 1.2 μM CHIR (FIG. 2D).
All qPCR data are relative to the expression of TBP.
For ventral midbrain organoid preparation, cells were grown for 2-3 days after splitting in MG coated 6 well plates and dissociated using 600 μl Accutase. […] Cells were resuspended in 1 ml stem cell media +1:100 RI and counted. […]
Quantification was performed in excel by calculating ΔCt relative to TBP. […]
(In general: In qPCR the cycle at which signal appears reflects the starting amount.)

The test system of assay [2] is striatal organoids. Description: SAG dose-response curve in presence of IWP2 for LGE patterning of striatal organoids. It counts as cell-based, human. Here is the method:
Panel C, D: Quantifications of GSX2^+ rosettes and PAX6^− rosettes, indicating LGE identity.
Panel E-F: Immunolabeling of CTIP2, an important early striatal marker, in two conditions with promising numbers of GSX2^+ rosettes, but low PAX6 expression.
For striatal organoid preparation, cells were grown for 2-3 days after splitting in MG coated 6 well plates and dissociated using 600 μl Accutase. 9000 cells were then transferred into 150 μl neural induction media containing 10 nM SAG and 2.5 μM IWP2 (SigmaAldrich, Cat. #10536) as well as 1:100 ROCK inhibitor. Media was exchanged on day 2 by replacing 100 μl media with 150 μl fresh NI media containing 10 nM SAG, 2.5 μM IWP2 and 1:100 ROCK inhibitor.
Striatal neurons are born majorly from the lateral ganglionic eminence (LGE), from where they migrate and form the developing striatum (Fjodorova, Noakes and Li, Neurogenesis, 2(1), 2015, Ornorati et al., Nat. Neurosci. 17, 1804-15, 2014). To pattern into LGE, we performed a dose curve experiment in a Wnt inhibitory context (IWP-2, which anteriorized and inhibits dorsal fate) similar to previous 2D differentiation approaches (Wu et al., Stem Cell Reports 11, 635-650, 2018). In brief, we activated sonic hedgehog signaling with the small molecule SAG at concentrations between 10 nM and 100 nM (FIG. 4B). We performed a SAG dose-response curve in the presence of the Wnt inhibitor IWP2 in an otherwise growth-factor free neural induction media.

The mark [3] stands for this setting: lowest concentration of SAG (10 nM), with IWP2, day 28 organoids.

Molecules are shown by their SMILES. Entries after “also recorded” stand apart in the source; their conditions may differ.

For the molecule `CN[C@H]1CC[C@H](N(Cc2cccc(-c3ccncc3)c2)C(=O)c2sc3ccccc3c2Cl)CC1` [SAG, 3-Chloro-N-[trans-4-(methylamino)cyclo-hexyl]-N-[[3-(4-pyridinyl)phenyl]methyl]benzo[b]thiophene-2-carboxamide], in assay [1], the “concentration sufficient to introduce maximal FOXA2 expression levels” value is recorded as 300 nM. Moreover, the CTIP2 expression entry in assay [2] (25 nM SAG treated organoids compared with SAG10 treated organoids) is listed as “much lower; also recorded: significantly lower”. In assay [2] (setting [3]), the “rosettes expressing the LGE marker GSX2” value is listed as “high level” and the “rosettes expressing the more dorsal marker PAX6” value is recorded as “low number”.

Values taken from patent US20260185056A1, “TRIPLE TISSUE CULTURE FUSION” (IMBA - INSTITUT FÜR MOLEKULARE BIOTECHNOLOGIE GMBH, priority 2022, published 2026).
